Results taken from patent EP0025288A1, “Derivatives of monic acid, processes for their preparation, compositions containing them and their preparation” (priority 1979, dated 1981).

Experiments:
Assay type in all cases: cell-based
Past multocida PA1 = assay: MIC, veterinary bacteria; details: veterinary bacteria (Table 2)
Strep uberis SPU1 = assay: MIC, veterinary bacteria; details: veterinary bacteria (Table 2)
M. suipneumoniae JF 435 = assay: MIC, anti-mycoplasmal, Friis broth solidified with 0.9% agarose; details: inoculum 10^3 to 10^5 C.F.U., 6 days incubation at 37°C
M. gallisepticum S6 = assay: as above; details: inoculum 10^3 to 10^5 C.F.U., 6 days incubation at 37°C
Strep faecalis I = assay: MIC, human bacteria, serial dilution in nutrient agar; details: nutrient agar containing 5% 'chocolated' horse blood
[1] = test system: Neisseria catarrhalis 1502; assay: as above; details: Neisseria catarrhalis 1502 (footnote a); nutrient agar containing 5% 'chocolated' horse blood
[2] = test system: Erysipelothrix rhusiopathiae NCTC 8163; assay: MIC, veterinary bacteria; details: veterinary bacteria (Table 2)
M. suipneumoniae Str. 11 = assay: MIC, anti-mycoplasmal, Friis broth solidified with 0.9% agarose; details: inoculum 10^3 to 10^5 C.F.U., 6 days incubation at 37°C
[3] = test system: Strep suis (group D) SPS11; assay: MIC, veterinary bacteria; details: veterinary bacteria (Table 2)
[4] = test system: M. suipneumoniae PW/C/210; assay: MIC, anti-mycoplasmal, Friis broth solidified with 0.9% agarose; details: inoculum 10^3 to 10^5 C.F.U., 6 days incubation at 37°C
M. bovis NCTC 10131 = assay: microbe, parasite or virus in culture; details: M. bovis NCTC 10131; inoculum 10^3 to 10^5 C.F.U., 6 days incubation at 37°C
M. suipneumoniae MS 16 = assay: MIC, anti-mycoplasmal, Friis broth solidified with 0.9% agarose; details: inoculum 10^3 to 10^5 C.F.U., 6 days incubation at 37°C
[5] = test system: Corynebacterium pyogenes CY1; assay: MIC, veterinary bacteria; details: veterinary bacteria (Table 2)
Bord bronchiseptica BO8 = assay: MIC, veterinary bacteria; details: veterinary bacteria (Table 2)
E coli NCTC 10418 [6] = assay: MIC, veterinary bacteria; details: veterinary bacteria (Table 2)
E coli ESS = assay: MIC, human bacteria, serial dilution in nutrient agar; details: nutrient agar containing 5% 'chocolated' horse blood
[7] = test system: M. bovigenitalium ATCC 14173; assay: MIC, anti-mycoplasmal, Friis broth solidified with 0.9% agarose; details: inoculum 10^3 to 10^5 C.F.U., 6 days incubation at 37°C
Past Haemolytica PA5 = assay: MIC, veterinary bacteria; details: veterinary bacteria (Table 2)
M. suipneumoniae HK(2) = assay: MIC, anti-mycoplasmal, Friis broth solidified with 0.9% agarose; details: inoculum 10^3 to 10^5 C.F.U., 6 days incubation at 37°C
M. suipneumoniae UCD 1 = assay: as above; details: inoculum 10^3 to 10^5 C.F.U., 6 days incubation at 37°C
[8] = test system: Staph aureus B4 (pen resis); assay: MIC, veterinary bacteria; details: veterinary bacteria (Table 2)
[9] = test system: M. suipneumoniae NCTC 10110; assay: MIC, anti-mycoplasmal, Friis broth solidified with 0.9% agarose; details: inoculum 10^3 to 10^5 C.F.U., 6 days incubation at 37°C
Staph aureus Russell = assay: MIC, human bacteria, serial dilution in nutrient agar; details: nutrient agar containing 5% 'chocolated' horse blood
Strep pneumoniae CN33 = assay: as above; details: nutrient agar containing 5% 'chocolated' horse blood
Strep pyogenes B 2788 = assay: as above; details: nutrient agar containing 5% 'chocolated' horse blood
P mirabilis 889 = assay: as above; details: nutrient agar containing 5% 'chocolated' horse blood
M. hyorhinis ATCC 25021 = assay: MIC, anti-mycoplasmal, Friis broth solidified with 0.9% agarose; details: inoculum 10^3 to 10^5 C.F.U., 6 days incubation at 37°C
Staph aureus Oxford [10] = assay: MIC, veterinary bacteria; details: veterinary bacteria (Table 2)
S dublin S7 = assay: MIC, veterinary bacteria; details: veterinary bacteria (Table 2)
Staph aureus W2827 = assay: MIC, human bacteria, serial dilution in nutrient agar; details: nutrient agar containing 5% 'chocolated' horse blood
M. dispar NCTC 10125 = assay: MIC, anti-mycoplasmal, Friis broth solidified with 0.9% agarose; details: inoculum 10^3 to 10^5 C.F.U., 6 days incubation at 37°C
Bord bronchisptica BO9 = assay: MIC, veterinary bacteria; details: veterinary bacteria (Table 2)
M. hyorhinis ATCC 23234 = assay: MIC, anti-mycoplasmal, Friis broth solidified with 0.9% agarose; details: inoculum 10^3 to 10^5 C.F.U., 6 days incubation at 37°C
M. suipneumoniae TAM 6N = assay: as above; details: inoculum 10^3 to 10^5 C.F.U., 6 days incubation at 37°C
M. suipneumoniae NB12 = assay: as above; details: inoculum 10^3 to 10^5 C.F.U., 6 days incubation at 37°C
M. pneumoniae ATCC 15492 = assay: as above; details: inoculum 10^3 to 10^5 C.F.U., 6 days incubation at 37°C
M. suipneumoniae LABER = assay: as above; details: inoculum 10^3 to 10^5 C.F.U., 6 days incubation at 37°C
[11] = test system: M. hyosynoviae ATCC 25591; assay: as above; details: inoculum 10^3 to 10^5 C.F.U., 6 days incubation at 37°C
Bacillus subtilis 6633 = assay: MIC, human bacteria, serial dilution in nutrient agar; details: nutrient agar containing 5% 'chocolated' horse blood
K aerogenes A = assay: as above; details: nutrient agar containing 5% 'chocolated' horse blood
S typhimurium S18 = assay: MIC, veterinary bacteria; details: veterinary bacteria (Table 2)
Strep dysgalaciae SPD1 = assay: MIC, veterinary bacteria; details: veterinary bacteria (Table 2)
[12] = test system: Haemophilus influenzae Wy21; assay: MIC, human bacteria, serial dilution in nutrient agar; details: nutrient agar containing 5% 'chocolated' horse blood
Past multocida PA2 = assay: MIC, veterinary bacteria; details: veterinary bacteria (Table 2)
Ps aeruginosa 10662 = assay: MIC, human bacteria, serial dilution in nutrient agar; details: nutrient agar containing 5% 'chocolated' horse blood
E coli E1 = assay: MIC, veterinary bacteria; details: veterinary bacteria (Table 2)
Staph aureus Oxford [13] = assay: MIC, human bacteria, serial dilution in nutrient agar; details: nutrient agar containing 5% 'chocolated' horse blood
Strep agalactiae SPA1 = assay: MIC, veterinary bacteria; details: veterinary bacteria (Table 2)
Strep pyogenes A 64/848 = assay: MIC, human bacteria, serial dilution in nutrient agar; details: nutrient agar containing 5% 'chocolated' horse blood
[14] = test system: Staph aureus 152 (pen sens); assay: MIC, veterinary bacteria; details: veterinary bacteria (Table 2)
E coli NCTC 10418 [15] = assay: MIC, human bacteria, serial dilution in nutrient agar; details: nutrient agar containing 5% 'chocolated' horse blood
[16] = test system: Haemophilus influenzae Q1; assay: as above; details: nutrient agar containing 5% 'chocolated' horse blood
[17] = test system: M. suipneumoniae J2206/183b; assay: MIC, anti-mycoplasmal, Friis broth solidified with 0.9% agarose; details: inoculum 10^3 to 10^5 C.F.U., 6 days incubation at 37°C
[18] = test system: M. suipneumoniae ATCC 25095; assay: as above; details: inoculum 10^3 to 10^5 C.F.U., 6 days incubation at 37°C
[19] = test system: Pasteurella multocida 1633; assay: MIC, human bacteria, serial dilution in nutrient agar; details: nutrient agar containing 5% 'chocolated' horse blood
Strep pyogenes C 2761 = assay: as above; details: nutrient agar containing 5% 'chocolated' horse blood

## 5-Acetylpentyl monate A [Example 7]
Past multocida PA1
  MIC: .625 µg/mL
Strep uberis SPU1
  MIC: .156 µg/mL
M. suipneumoniae JF 435
  in vitro MIC: 0.25 µg/mL
M. gallisepticum S6
  in vitro MIC: 2.5 µg/mL
Strep faecalis I
  MIC: >100 µm/ml
[1]
  MIC: ^a0.5 µm/ml
[2]
  MIC: 40 µg/mL
M. suipneumoniae Str. 11
  in vitro MIC: 0.25 µg/mL
[3]
  MIC: 5 µg/mL
[4]
  in vitro MIC: 0.25 µg/mL
M. bovis NCTC 10131
  in vitro MIC: <0.01 µg/mL
M. suipneumoniae MS 16
  in vitro MIC: 0.25 µg/mL
[5]
  MIC: >80 µg/mL
Bord bronchiseptica BO8
  MIC: 40 µg/mL
E coli NCTC 10418 [6]
  MIC: 80 µg/mL
E coli ESS
  MIC: 0.5 µm/ml
[7]
  in vitro MIC: 0.025 µg/mL
Past Haemolytica PA5
  MIC: 5 µg/mL
M. suipneumoniae HK(2)
  in vitro MIC: 0.5 µg/mL
M. suipneumoniae UCD 1
  in vitro MIC: 0.5 µg/mL
[8]
  MIC: .625 µg/mL
[9]
  in vitro MIC: 0.5 µg/mL
Staph aureus Russell
  MIC: 1.0 µm/ml
Strep pneumoniae CN33
  MIC: 0.5 µm/ml
Strep pyogenes B 2788
  MIC: 2.5 µm/ml
P mirabilis 889
  MIC: >100 µm/ml
M. hyorhinis ATCC 25021
  in vitro MIC: 0.1 µg/mL
Staph aureus Oxford [10]
  MIC: .625 µg/mL
S dublin S7
  MIC: >80 µg/mL
Staph aureus W2827
  MIC: 2.5 µm/ml
M. dispar NCTC 10125
  in vitro MIC: 0.05 µg/mL
Bord bronchisptica BO9
  MIC: 5 µg/mL
M. hyorhinis ATCC 23234
  in vitro MIC: 0.1 µg/mL
M. suipneumoniae TAM 6N
  in vitro MIC: 0.5 µg/mL
M. suipneumoniae NB12
  in vitro MIC: 0.25 µg/mL
M. pneumoniae ATCC 15492
  in vitro MIC: 0.5 µg/mL
M. suipneumoniae LABER
  in vitro MIC: 0.25 µg/mL
[11]
  in vitro MIC: 0.025 µg/mL
Bacillus subtilis 6633
  MIC: 0.5 µm/ml
K aerogenes A
  MIC: >100 µm/ml
S typhimurium S18
  MIC: >80 µg/mL
Strep dysgalaciae SPD1
  MIC: .312 µg/mL
[12]
  MIC: 0.1 µm/ml
Past multocida PA2
  MIC: .312 µg/mL
Ps aeruginosa 10662
  MIC: >100 µm/ml
E coli E1
  MIC: >80 µg/mL
Staph aureus Oxford [13]
  MIC: 1.0 µm/ml
Strep agalactiae SPA1
  MIC: .625 µg/mL
Strep pyogenes A 64/848
  MIC: 0.5 µm/ml
[14]
  MIC: .625 µg/mL
E coli NCTC 10418 [15]
  MIC: >100 µm/ml
[16]
  MIC: 0.2 µm/ml
[17]
  in vitro MIC: 0.5 µg/mL
[18]
  in vitro MIC: 0.25 µg/mL
[19]
  MIC: 0.5 µm/ml
Strep pyogenes C 2761
  MIC: 2.5 µm/ml
